The test concerns HTT mRNA. The test can be described thus: RT-qPCR splicing assay, HTT mRNA canonical (CJ) and alternative (AJ) junction. In kind it is cell-based, human. The conditions noted are these: Homo sapiens; for AC50: HTT alternative junction mRNA, read-out: HTT AJ (increase in AJ mRNA, AC50). In outline:
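A673 or K562 cells treated 24 h at 37 °C with 11-point 3-fold dilutions (top final 10 uM, DMSO ≤0.25%). Lysates analysed by one-step RT-qPCR for canonical (CJ) and alternative-exon (AJ) junctions, normalized to GAPDH, GUSB or PPIA. ΔΔCt vs DMSO, RQ = 2^(−ΔΔCt), expressed as percentage response.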
In general terms: Quantitative PCR measures a nucleic acid by following its amplification.

Setting [1] is: HTT canonical junction mRNA, RT-qPCR, read-out: HTT CJ (decrease in CJ mRNA levels, IC50).
The mark [2] stands for this setting: canonical junction qPCR panel, Table 4, read-out: HTT IC50 (decrease in CJ mRNA levels).

Molecules are shown by their SMILES. Where two headings read alike, the source gives them in different places. Bounds are passed on as bounds.

From patent US20250092065A1, “2-(INDAZOL-5-YL)-6-(PIPERIDIN-4-YL)-1,7-NAPHTHYRIDINE DERIVATIVES AND RELATED COMPOUNDS AS MODULATORS FOR SPLICING NUCLEIC ACIDS AND FOR THE TREATMENT OF PROLIFERATIVE DISEASES” (REMIX THERAPEUTICS INC., priority 2022, published 2025) come the findings set out here.

One may read the AC50 as the concentration giving half of the maximal activity seen. What is called IC50 is the point on the concentration scale where inhibition reaches its midpoint. With `Cn1cc2cc(-c3ccc4nc([C@@H]5CCNC6(CC6)C5)ccc4n3)c(O)cc2n1` (single isomer, unassigned) [Compound 495], for the setting “RT-qPCR”, the AC50 was below 100 nM. The IC50 is, setting by setting: under setting [1], below 100 nM; under setting [2], below 100 nM.
Take `Cn1cc2cc(-c3ccc4nc([C@H]5CCNC6(CC6)C5)ccc4n3)c(O)cc2n1` (single isomer, unassigned) [Compound 496]: the AC50 (RT-qPCR) was below 100 nM. The IC50 runs as follows: under setting [1], 100 to 1000 nM; under setting [2], 100 to 1000 nM.
With `Cc1nc2cc(O)c(-c3ccc4nc([C@H]5CCNC6(CC6)C5)ccc4n3)cc2o1` (single isomer, unassigned) [Compound 497], the AC50 (RT-qPCR) is below 100 nM. The IC50 runs as follows: under setting [1], below 100 nM; under setting [2], below 100 nM.
As to `Cc1nc2cc(O)c(-c3ccc4nc([C@@H]5CCNC6(CC6)C5)ccc4n3)cc2o1` (single isomer, unassigned) [Compound 498], the AC50 (RT-qPCR) is below 100 nM. Moreover, the IC50 was below 100 nM under setting [1] and below 100 nM under setting [2].
As for `CN[C@@H]1CCN(c2ccc3nc(-c4cn5cc(C)nc5c(C)c4O)ncc3n2)C1` (single isomer, unassigned) [Compound 504], where the note is “RT-qPCR”, the AC50 was in the range of 100 to 1000 nM. The IC50 by setting is: under setting [1], 100 to 1000 nM; under setting [2], 100 to 1000 nM.
On to `CNC(=O)c1nc(-c2cc3cn(C)nc3c(C)c2O)nc2ccc(N3CCN[C@@H](C)C3)cc12` (single isomer, unassigned) [Compound 512], for which the AC50 (RT-qPCR) lay in the range of 100 to 1000 nM. Moreover, the IC50 fell in the range of 100 to 1000 nM under setting [1] and 100 to 1000 nM under setting [2].
For `CN[C@@H]1CCN(c2ccc3nc(-c4cc5cn(C)nc5c(C)c4O)ncc3c2)C1` (single isomer, unassigned) [Compound 521], the AC50 (RT-qPCR) was in the range of 100 to 1000 nM. The IC50 runs as follows: under setting [1], below 100 nM; under setting [2], below 100 nM.
`CNC(=O)c1nc(-c2cc3cn(C)nc3c(C)c2O)nc2ccc(N3C[C@@H](C)N[C@H](C)C3)cc12` (single isomer, unassigned) [Compound 653]: the AC50 (RT-qPCR) lay within 100 to 1000 nM. In addition, the IC50 under setting [1] is below 100 nM and the IC50 under setting [2] was below 100 nM.
As for `Cc1c(O)c(-c2ncc3cc(N4C[C@@H](C)N[C@H](C)C4)ccc3n2)cc2cn(C)nc12` (single isomer, unassigned) [Compound 661], the half-maximal activity concentration (AC50) (RT-qPCR) was in the range of 1000 to 10000 nM. For the same compound, the IC50 runs as follows: under setting [1], 100 to 1000 nM; under setting [2], 100 to 1000 nM.
For the compound `CNC(=O)c1nc(-c2cc3cn(C)nc3c(F)c2O)nc2ccc(N3C[C@@H](C)N[C@H](C)C3)cc12` (single isomer, unassigned) [Compound 668], under “RT-qPCR”, the AC50 was 1000 to 10000 nM. Moreover, the IC50 is 100 to 1000 nM under setting [1] and 100 to 1000 nM under setting [2].
For the compound `CNC(=O)c1nc(-c2cc3cn(C)nc3c(F)c2O)nc2ccc(N3C[C@H](C)N[C@@H](C)C3)cc12` (single isomer, unassigned) [Compound 669], for the setting “RT-qPCR”, the AC50 was 100 to 1000 nM. The IC50 under setting [1] is 100 to 1000 nM and the IC50 under setting [2] was 100 to 1000 nM.
For `CNC(=O)c1nc(-c2cc3cn(C)nc3cc2O)nc2ccc(N3C[C@H](C)N[C@@H](C)C3)cc12` (single isomer, unassigned) [Compound 676], the AC50 (RT-qPCR) was 100 to 1000 nM. Further, the IC50 is, setting by setting: under setting [1], 100 to 1000 nM; under setting [2], 100 to 1000 nM.
With `CNC(=O)c1nc(-c2cc3cn(C)nc3cc2O)nc2ccc(N3C[C@@H](C)N[C@H](C)C3)cc12` (single isomer, unassigned) [Compound 677], the AC50 (RT-qPCR) fell in the range of 1000 to 10000 nM. In addition, the IC50 fell in the range of 100 to 1000 nM under setting [1] and 100 to 1000 nM under setting [2].
For the compound `Cc1cn2cc(-c3ccc4cc(N5C[C@H](C)N[C@@H](C)C5)cc(F)c4n3)cc(F)c2n1` (single isomer, unassigned) [Compound 705, 2,2,2-trifluoroacetate], the AC50 (RT-qPCR) was in the range of 100 to 1000 nM. The IC50 under setting [1] is 100 to 1000 nM and the IC50 under setting [2] lay in the range of 100 to 1000 nM.
For `Cn1cc2cc(-c3ncc4nc(C5CCNCC5)ccc4n3)c(O)c(F)c2n1` [Compound 155], the AC50 (RT-qPCR) was below 100 nM. Further, the IC50 is below 100 nM under setting [1] and below 100 nM under setting [2].
With `Cc1nc2cc(O)c(-c3ccc4nc(N5CCNC(C(C)(C)C)C5)ccc4n3)cc2o1` (stereo not drawn) [Compound 492], the AC50 (RT-qPCR) is 100 to 1000 nM. For the same compound, the IC50 runs as follows: under setting [1], 100 to 1000 nM; under setting [2], 100 to 1000 nM.
Regarding `Cc1nc2cc(O)c(-c3ccc4nc(N5CC[C@@H](N(C)C(C)(C)C)C5)ccc4n3)cc2o1` [Compound 493], where the note is “RT-qPCR”, the AC50 is below 100 nM. In addition, the IC50 by setting is: under setting [1], below 100 nM; under setting [2], below 100 nM.
As to `Cc1c(O)c(-c2nc(C(=O)N(C)C)c3cc(N4CCNCC4)ccc3n2)cc2cn(C)nc12` [Compound 502, 2-(6-hydroxy-2,7-dimethylindazol-5-yl)-N,N-dimethyl-6-(piperazin-1-yl)quinazoline-4-carboxamide], the AC50 (RT-qPCR) is 1000 to 10000 nM. Further, the IC50 fell in the range of 1000 to 10000 nM under setting [1] and 1000 to 10000 nM under setting [2].
Consider `CCNC(=O)c1nc(-c2cc3cn(C)nc3c(C)c2O)nc2ccc(N3CCNCC3)cc12` [Compound 503, N-ethyl-2-(6-hydroxy-2,7-dimethylindazol-5-yl)-6-(piperazin-1-yl)quinazoline-4-carboxamide], for which the AC50 (RT-qPCR) is below 100 nM. The IC50 under setting [1] was below 100 nM and the IC50 under setting [2] was below 100 nM.
Regarding `CNC(=O)c1nc(-c2cc(F)c3nc(C)cn3c2)nc2ccc(N3CCNCC3)cc12` [Compound 505, 2-{8-fluoro-2-methylimidazo[1,2-a]pyridin-6-yl}-N-methyl-6-(piperazin-1-yl) quinazoline-4-carboxamide], the AC50 (RT-qPCR) was 100 to 1000 nM. In addition, the IC50 by setting is: under setting [1], 100 to 1000 nM; under setting [2], 100 to 1000 nM.
In the case of `CNC(=O)c1nc(-c2cc3cn(C)nc3c(F)c2O)nc2ccc(N3CCNCC3)cc12` [Compound 506, 2-(7-fluoro-6-hydroxy-2-methylindazol-5-yl)-N-methyl-6-(piperazin-1-yl)quinazoline-4-carboxamide], the AC50 (RT-qPCR) fell in the range of 100 to 1000 nM. The IC50 by setting is: under setting [1], below 100 nM; under setting [2], below 100 nM.
Take `CNC(=O)c1nc(-c2cc3cn(C)nc3c(C)c2O)nc2ccc(N3CCC(N(C)C)CC3)cc12` [Compound 507, 6-[4-(dimethylamino)piperidin-1-yl]-2-(6-hydroxy-2,7-dimethylindazol-5-yl)-N-methylquinazoline-4-carboxamide]: the AC50 (RT-qPCR) was 1000 to 10000 nM. The IC50 lay within 100 to 1000 nM under setting [1] and 100 to 1000 nM under setting [2].
For `CNc1nc(-c2cc3cn(C)nc3c(C)c2O)nc2ccc(N3CCNCC3)cc12` [Compound 508, 2,7-dimethyl-5-[4-(methylamino)-6-(piperazin-1-yl)quinazolin-2-yl]indazol-6-ol], the AC50 (RT-qPCR) was above 10000 nM. In addition, the IC50 runs as follows: under setting [1], above 10000 nM; under setting [2], above 10000 nM.
In the case of `Cc1c(O)c(-c2nc(N(C)C)c3cc(N4CCNCC4)ccc3n2)cc2cn(C)nc12` [Compound 509, 5-[4-(dimethylamino)-6-(piperazin-1-yl)quinazolin-2-yl]-2,7-dimethylindazol-6-ol], where the note is “RT-qPCR”, the AC50 was above 10000 nM. Besides, the IC50 runs as follows: under setting [1], above 10000 nM; under setting [2], above 10000 nM.
For `CNC(=O)c1nc(-c2cc3cn(C)nc3c(C)c2O)nc2ccc(N3CCC(NC)C3)cc12` (stereo not drawn) [Compound 510, 2-(6-hydroxy-2,7-dimethylindazol-5-yl)-N-methyl-6-[3-(methylamino)pyrrolidin-1-yl]quinazoline-4-carboxamide], the AC50 (RT-qPCR) fell in the range of 100 to 1000 nM. For the same compound, the IC50 was below 100 nM under setting [1] and below 100 nM under setting [2].
As to `CNC(=O)c1nc(-c2cc3cn(C)nc3c(C)c2O)nc2ccc(N3C[C@@H](C)N[C@@H](C)C3)cc12` [Compound 511, 6-[(3R,5S)-3,5-dimethylpiperazin-1-yl]-2-(6-hydroxy-2,7-dimethylindazol-5-yl)-N-methylquinazoline-4-carboxamide], for the setting “RT-qPCR”, the AC50 was in the range of 100 to 1000 nM. Besides, the IC50 is 100 to 1000 nM under setting [1] and 100 to 1000 nM under setting [2].
On to `CC(=O)c1nc(-c2cc3cn(C)nc3c(F)c2O)nc2ccc(N3CCNCC3)cc12` [Compound 513, 1-(2-(7-fluoro-6-hydroxy-2-methyl-2H-indazol-5-yl)-6-(piperazin-1-yl)quinazolin-4-yl)ethan-1-one 2,2,2-trifluoroacetate], for which the AC50 (RT-qPCR) lay within 1000 to 10000 nM. For the same compound, the IC50 by setting is: under setting [1], 1000 to 10000 nM; under setting [2], 1000 to 10000 nM.
In the case of `Cn1cc2cc(-c3nc(C#N)c4cc(N5CCNCC5)ccc4n3)c(O)c(F)c2n1` [Compound 514, 2-(7-fluoro-6-hydroxy-2-methylindazol-5-yl)-6-(piperazin-1-yl) quinazoline-4-carbonitrile; trifluoroacetic acid], the AC50 (RT-qPCR) lay within 1000 to 10000 nM. Further, the IC50 under setting [1] fell in the range of 100 to 1000 nM and the IC50 under setting [2] fell in the range of 100 to 1000 nM.
On to `Cc1c(O)c(-c2ccc3cc(N4CCNCC4)cc(F)c3n2)cc2cn(C)nc12` [Compound 515, 5-[8-fluoro-6-(piperazin-1-yl)quinolin-2-yl]-2,7-dimethylindazol-6-ol], for which the AC50 (RT-qPCR) is below 100 nM. Moreover, the IC50 by setting is: under setting [1], below 100 nM; under setting [2], below 100 nM.
Regarding `Cn1cc2cc(-c3ccc4cc(N5CCNCC5)cc(F)c4n3)cc(F)c2n1` [Compound 516, 8-fluoro-2-(7-fluoro-2-methylindazol-5-yl)-6-(piperazin-1-yl)quinoline], the AC50 (RT-qPCR) is 100 to 1000 nM. Besides, the IC50 reads like this: under setting [1], 100 to 1000 nM; under setting [2], 100 to 1000 nM.
Consider `Cc1cn2cc(-c3ccc4cc(N5CCNCC5)cc(F)c4n3)cc(F)c2n1` [Compound 517, 8-fluoro-2-{8-fluoro-2-methylimidazo[1,2-a]pyridin-6-yl}-6-(piperazin-1-yl)quinoline], for which the AC50 (RT-qPCR) was 100 to 1000 nM. The IC50 is 100 to 1000 nM under setting [1] and 100 to 1000 nM under setting [2].
